Measurements: patent US20240287062A1, “NAPHTHYRIDONE COMPOUNDS FOR INHIBITION OF RAF KINASES AND/OR BCR-ABL TYROSINE KINASES” (Enliven Inc., priority 2021, published 2024)

Assays:
ABL1 [1] = target: T1, ABL1 (Homo sapiens (Human), UniProt P00519); test: Luminescence-based ABL kinase assay (Km ATP), ADP-Glo; format: biochemical; details: measured using the Abl1 Km assay, read-out: IC50 (nM), value inside parentheses
Description: (§1) Kinase activity of ABL1 was measured using the ADP-Glo system (Promega), which measures formation of ADP using a luminescence-based method. Compounds were serially diluted in DMSO. 20 nL of compound or DMSO only (high control, HC) were added to a 384-well plate (OptiPlate-384, PerkinElmer) using an Echo550 liquid handler (Labcyte). 15 μL of kinase solution (10 mM MgCl2, 0.01% Brij-35, 2 mM DTT, 0.05% BSA, 1 mM EGTA, 50 mM HEPES pH 7.5, and 3.325 nM ABL1 [Carna Biosciences]) were added to each well of the 384-well plate containing the compounds. No enzyme control wells were included (low control, LC). The plate was incubated at room temperature for 30 minutes. 5 μL of a second solution containing 10 mM MgCl2, 0.01% Brij-35, 2 mM DTT, 0.05% BSA, 1 mM EGTA, 50 mM HEPES pH 7.5, 6 μM Peptide 2 (Perkin Elmer, Cat No 760346), and 40 μM ATP were added to each well to start the kinase reaction. The plate was incubated for 90 minutes at room temperature. 20 μL of ADP-Glo reagent (Promega) were then added to each well and the plate was incubated for 40 minutes at room temperature. 40 μL of kinase detection reagent (Promega) was added to each well and the plate was incubated for an additional 45 minutes at room temperature. During this step, ADP was converted to ATP, a substrate for luciferase, to produce luminescence signal. Luminescence was measured on an Envision plate reader (Perkin Elmer). Luminescence signal positively correlates with kinase activity. The percent kinase activity was calculated as follows: percent kinase activity=100×(LumSample−LumLC)/(LumHC−LumLC). As noted above, DMSO only and no enzyme wells were used as high and low controls, respectively. IC50 values were calculated using the XLFit software.

ABL1 (T315I) [2] = target: T2, ABL1 (T315I) (Homo sapiens (Human), UniProt P00519, T315I); test: as above; format: biochemical; details: measured using the Abl1 Km assay, read-out: IC50 (nM), value inside parentheses
Description: as §1

ABL1 (Y253F) = ABL1 (Y253F) (Homo sapiens (Human), UniProt P00519, Y253F); test: Radioactivity-based ABL kinase assay; format: biochemical; details: 100 μM 33P-ATP
Description: (§2) The following kinase assay was based on Anastassiadis et al (2011) Nat Biotech, 29:1039-1045. Briefly, ABL kinase substrate (ABLtide: EAIYAAPFAKKK; Genscript) was freshly prepared in reaction buffer (20 mM HEPES pH 7.5, 10 mM MgCl2, 1 mM EGTA, 0.02% Brij-35, 0.02 mg/ml BSA, 0.1 mM Na3VO4, 2 mM DTT, and 1% DMSO) to a final substrate concentration of 20 μM. ABL wild type and ABL mutant kinases were added to the substrate solution and mixed to the final enzyme concentrations shown in Table 3 below.
(§3) Serial dilutions of compounds were prepared in 100% DMSO Compounds or DMSO only (vehicle control) were then added to the kinase reaction mixture and incubated for 20 minutes at room temperature. 100 μM ^33P-ATP (specific activity 10 μCi/μl) was then added to the kinase reaction mixture to initiate the kinase reaction. This mixture was incubated for 2 hours at room temperature. Radioactivity was then measured by radioisotope filter-binding. Kinase activity data were expressed as the percent remaining kinase activity in test samples compared to vehicle control reactions. IC50 values and curve fits were obtained using a nonlinear regression model with a sigmoidal dose response (Prism GraphPad Software).

ABL1 (Y253H) = ABL1 (Y253H) (Homo sapiens (Human), UniProt P00519, Y253H); test: Radioactivity-based ABL kinase assay; format: biochemical; details: 100 μM 33P-ATP
Description: as §2, §3

ABL1 (G250E) = ABL1 (G250E) (Homo sapiens (Human), UniProt P00519, G250E); test: Radioactivity-based ABL kinase assay; format: biochemical; details: 100 μM 33P-ATP
Description: as §2, §3

ABL1 [3] = target: T1, ABL1; test: Radioactivity-based ABL kinase assay; format: biochemical; details: 100 μM 33P-ATP
Description: as §2, §3

ABL1 (E255K) = ABL1 (E255K) (Homo sapiens (Human), UniProt P00519, E255K); test: Radioactivity-based ABL kinase assay; format: biochemical; details: 100 μM 33P-ATP
Description: as §2, §3

ABL1 (M351T) = ABL1 (M351T) (Homo sapiens (Human), UniProt P00519, M351T); test: Radioactivity-based ABL kinase assay; format: biochemical; details: 100 μM 33P-ATP
Description: as §2, §3

ABL1 (T315I) [4] = target: T2, ABL1 (T315I); test: Radioactivity-based ABL kinase assay; format: biochemical; details: 100 μM 33P-ATP
Description: as §2, §3

ABL1 (Q252H) = ABL1 (Q252H) (Homo sapiens (Human), UniProt P00519, Q252H); test: Radioactivity-based ABL kinase assay; format: biochemical; details: 100 μM 33P-ATP
Description: as §2, §3

ABL1 (V299L) = ABL1 (V299L) (Homo sapiens (Human), UniProt P00519, V299L); test: Radioactivity-based ABL kinase assay; format: biochemical; details: 100 μM 33P-ATP
Description: as §2, §3

ABL1 (H396P) = ABL1 (H396P) (Homo sapiens (Human), UniProt P00519, H396P); test: Radioactivity-based ABL kinase assay; format: biochemical; details: 100 μM 33P-ATP
Description: as §2, §3

ABL1 (E255V) = ABL1 (E255V) (Homo sapiens (Human), UniProt P00519, E255V); test: Radioactivity-based ABL kinase assay; format: biochemical; details: 100 μM 33P-ATP
Description: as §2, §3

K562 cells = test: K562 cell proliferation assay (CellTiter-Glo); format: cell-based; details: Homo sapiens; K562 cell line, 72 hours, cell viability
Description: K562 cells, cultured in Iscove's Modified Dulbecco's Media (IMDM) supplemented with 10% FBS, were harvested at 50-80% confluency and plated at 2,000 cells per well in 384-well tissue culture plates. A subset of wells contained media only (low control, LC). Compounds were serially diluted in DMSO. 40 nL of compound or DMSO only (high control, HC) were added to each well using an Echo 550 liquid handler (Labcyte). The plates were placed in a 37° C. incubator with 5% CO2 for 72 hours. Cell viability was measured using a CellTiter-Glo luminescent cell viability assay (Promega), which allows for relative quantification of metabolically active cells by luminescence-based measurements of intracellular ATP concentrations. Briefly, plates were removed from the incubator and equilibrated for 15 minutes at room temperature prior to the addition of 40 μL of CellTiter-Glo reagent. Plates were then incubated for 30 minutes at room temperature. Luminescence was measured using an EnSpire plate reader (Perkin Elmer). As noted above, luminescence values from wells with DMSO only or media without cells were used as high and low controls (HC and LC), respectively. Normalized percent viability was calculated as follows: percent viability=100×(LumSample−LumLC)/(LumHC−LumLC). IC50 values were calculated using the XLFit software.

**Q.** For `Cc1c(F)cncc1-c1cc2cnc(NC(=O)C3CC3)cc2n(C)c1=O` [Compound 2, N-[3-(5-fluoro-4-methylpyridin-3-yl)-1-methyl-2-oxo-1,6-naphthyridin-7-yl]cyclopropanecarboxamide], which IC50 (ABL1 [1]) is on record?
**A.** Its IC50 is 1.8 nM.

**Q.** What about the IC50 (ABL1 (T315I) [2]) of the same compound?
**A.** The IC50 was 680 nM.

**Q.** And the IC50 (ABL1 (Y253F))?
**A.** Its IC50 is less than 0.51 nM.

**Q.** What about the IC50 (ABL1 (Y253H)) of the same compound?
**A.** Its IC50 is 0.93 nM.

**Q.** What about the IC50 (ABL1 (G250E)) of the same compound?
**A.** The IC50 was 1.5 nM.

**Q.** And the IC50 (ABL1 [3])?
**A.** The IC50 was 0.61 nM.

**Q.** What about the IC50 (ABL1 (E255K)) of the same compound?
**A.** Its IC50 is 2 nM.

**Q.** What about the IC50 (ABL1 (M351T)) of the same compound?
**A.** Its IC50 is 1.5 nM.

**Q.** What about the IC50 (ABL1 (T315I) [4]) of the same compound?
**A.** Its IC50 is 4400 nM.

**Q.** And the IC50 (ABL1 (Q252H))?
**A.** The IC50 was 1.2 nM.

**Q.** What about the IC50 (ABL1 (V299L)) of the same compound?
**A.** Its IC50 is less than 0.51 nM.

**Q.** What about the IC50 (ABL1 (H396P)) of the same compound?
**A.** Its IC50 is 1.2 nM.

**Q.** And the IC50 (ABL1 (E255V))?
**A.** Its IC50 is 0.61 nM.

**Q.** What about the IC50 (K562 cells) of the same compound?
**A.** The IC50 was 28 nM.

**Q.** Which results are given for `Cc1c(F)cncc1-c1cc2cnc(NC(=O)[C@@H]3C[C@@H]3F)cc2n(C)c1=O` [Compound 28, (1S,2S)-2-fluoro-N-[3-(5-fluoro-4-methylpyridin-3-yl)-1-methyl-2-oxo-1,6-naphthyridin-7-yl]cyclopropane-1-carboxamide]?
**A.** IC50 (ABL1 [1]): 2.2 nM; IC50 (ABL1 (T315I) [2]): 1500 nM; IC50 (ABL1 (Y253F)): 0.53 nM; IC50 (ABL1 (Y253H)): 3.6 nM; IC50 (ABL1 (G250E)): 3.7 nM; IC50 (ABL1 [3]): 1.2 nM; IC50 (ABL1 (E255K)): 3.4 nM; IC50 (ABL1 (M351T)): 4.5 nM; IC50 (ABL1 (T315I) [4]): > 500 nM; IC50 (ABL1 (Q252H)): 1.7 nM; IC50 (ABL1 (V299L)): 0.19 nM; IC50 (ABL1 (H396P)): 1.4 nM; IC50 (ABL1 (E255V)): 1.4 nM; IC50 (K562 cells): 47 nM
